# Laboratory results taken from US9409914B2, “Triazolo[4,5-d]pyrimidine derivatives” (Merck Patent GmbH, priority 2012, dated 2016).
# What was measured:
# [1] = target: T1, GCN2 (Homo sapiens, UniProt Q9P2K8); experiment: Cellular assay for GCN2 activity (phospho-eIF2alpha immunocytochemistry, tryptophanol-stimulated U2OS cells); type: cell-based; set-up: endogenous in cells; host or cells: U2OS; details: 2 hours compound, then 600 μM tryptophanol 30 minutes, anti-phospho-eIF2alpha, read-out: IC50 GCN2 (cell assay)
# Method: Cellular Assay for the Determination of Compound Activities
# Human U2OS cells (2000 cells/well) are seeded into 384-well plates and incubated for 20 hours.
# The next day, the cells are treated with the test compounds and incubated for 2 hours. Then, tryptophanol, at a final concentration of 600 μM, is added to the cells and those are incubated for 30 minutes.
# The analysis of cellular GCN2 activities is done by immunocytochemistry. Briefly, cells are fixated on the well surfaces by formaldehyde and permeabilised with Triton X-100. The primary antibody (anti-phospho-eIF2alpha (Ser51, Cell Signalling Technology, #3398) is incubated on the treated cells for 20 hours, followed by a 60 minutes incubation of the secondary antibody (anti-rabbit-IgG-Alexa 488; Molecular Probes #11008). The analysis and quantification of phosphorylated GCN2 is done by scanning the plates in the Acumen Explorer system (TTPLabtech). The obtained data are normalised against the untreated control wells (DMSO only) and expressed as % effect values. The determination of IC50 values is done by using the Graph Pad Prism software.
# Target sequence in this assay (Q9P2K8 whole entry): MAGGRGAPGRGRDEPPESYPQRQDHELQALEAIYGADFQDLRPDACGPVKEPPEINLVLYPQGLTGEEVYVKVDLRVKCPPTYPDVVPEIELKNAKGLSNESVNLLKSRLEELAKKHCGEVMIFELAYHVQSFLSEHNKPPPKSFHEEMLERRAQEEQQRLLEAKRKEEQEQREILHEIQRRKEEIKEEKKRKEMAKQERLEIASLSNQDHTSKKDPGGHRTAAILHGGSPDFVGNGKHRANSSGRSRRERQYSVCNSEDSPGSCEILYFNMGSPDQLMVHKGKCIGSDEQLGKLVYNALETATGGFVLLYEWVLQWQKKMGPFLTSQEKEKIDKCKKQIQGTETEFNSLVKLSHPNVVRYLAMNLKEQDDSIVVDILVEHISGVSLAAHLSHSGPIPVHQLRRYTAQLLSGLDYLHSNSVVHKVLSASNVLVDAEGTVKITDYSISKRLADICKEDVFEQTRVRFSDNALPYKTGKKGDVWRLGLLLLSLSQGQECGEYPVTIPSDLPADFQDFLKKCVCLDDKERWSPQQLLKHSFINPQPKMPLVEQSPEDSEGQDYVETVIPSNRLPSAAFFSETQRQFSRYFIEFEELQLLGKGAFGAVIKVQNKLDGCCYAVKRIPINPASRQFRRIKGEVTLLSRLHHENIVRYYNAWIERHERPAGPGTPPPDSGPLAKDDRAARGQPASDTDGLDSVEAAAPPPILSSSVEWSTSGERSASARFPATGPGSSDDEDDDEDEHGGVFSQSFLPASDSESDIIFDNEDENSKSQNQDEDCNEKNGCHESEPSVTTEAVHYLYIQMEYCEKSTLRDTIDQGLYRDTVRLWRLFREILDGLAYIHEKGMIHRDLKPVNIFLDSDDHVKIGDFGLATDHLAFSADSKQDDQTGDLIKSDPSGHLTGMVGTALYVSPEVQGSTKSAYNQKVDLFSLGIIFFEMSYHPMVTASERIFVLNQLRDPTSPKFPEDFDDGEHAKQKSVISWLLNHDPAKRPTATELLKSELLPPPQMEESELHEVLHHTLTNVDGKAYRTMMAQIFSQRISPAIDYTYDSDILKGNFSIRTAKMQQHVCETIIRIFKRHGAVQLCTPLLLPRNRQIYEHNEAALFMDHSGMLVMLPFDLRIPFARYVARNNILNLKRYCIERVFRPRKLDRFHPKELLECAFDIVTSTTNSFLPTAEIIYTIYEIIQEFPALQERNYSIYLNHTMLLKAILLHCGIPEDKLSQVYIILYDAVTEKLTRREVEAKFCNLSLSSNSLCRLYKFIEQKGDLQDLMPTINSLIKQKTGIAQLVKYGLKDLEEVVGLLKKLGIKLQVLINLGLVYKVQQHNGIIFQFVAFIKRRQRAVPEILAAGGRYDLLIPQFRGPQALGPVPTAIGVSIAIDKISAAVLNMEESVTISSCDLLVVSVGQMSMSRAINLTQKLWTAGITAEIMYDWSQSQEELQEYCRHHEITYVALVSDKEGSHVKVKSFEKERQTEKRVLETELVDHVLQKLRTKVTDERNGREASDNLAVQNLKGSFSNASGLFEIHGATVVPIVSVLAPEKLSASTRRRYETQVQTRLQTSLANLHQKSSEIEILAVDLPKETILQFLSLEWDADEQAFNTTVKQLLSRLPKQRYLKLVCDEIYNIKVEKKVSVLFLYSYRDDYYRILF
# [2] = target: T1, GCN2; experiment: GCN2 enzyme assay (TR-FRET Lanthascreen, phosphorylation of GFP-eIF2alpha); type: biochemical; details: 10 μM ATP, 80 nM GFP-eIF2alpha, 30 nM GCN2, room temperature
# Method in brief: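 Two-step TR-FRET (Lanthascreen) format: GCN2 incubated at room temperature with 10 μM ATP and 80 nM GFP-labelled eIF2alpha, then stopped with EDTA. Phospho-eIF2alpha detected by Tb-labelled antibody, excitation 340 nm; activity taken from the 520/495 nm emission ratio.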
# Target sequence in this assay (Q9P2K8 whole entry, species assumed): as the sequence (Q9P2K8 whole entry) above
IC50 [1] [µM],IC50 [2] [nM],Compound
3 to 50,< 300,"COCCOc1ccc(-n2nnc3cnc(Nc4cnn(C5CCN(C(C)=O)C5)c4)nc32)cc1 (stereo not drawn) [Compound A99, 1-[3-(4-{3-[4-(2-methoxy-ethoxy)-phenyl]-3H-[1,2,3]triazolo[4,5-d]pyrimidin-5-ylamino}-pyrazol-1-yl)-pyrrolidin-1-yl]-ethanone]"
3 to 50,< 300,"CCOc1ccc(-n2nnc3cnc(Nc4cnn(CCC5CCN(C(C)=O)CC5)c4)nc32)cc1 [Compound A100, 1-[4-(2-{4-[3-(4-ethoxy-phenyl)-3H-[1,2,3]triazolo[4,5-d]pyrimidin-5-ylamino]-pyrazol-1-yl}-ethyl)-piperidin-1-yl]-ethanone]"
3 to 50,< 300,"CN1CCC(n2cc(Nc3ncc4nnn(-c5ccc6nccnc6c5)c4n3)cn2)CC1 [Compound A101, [1-(1-methyl-piperidin-4-yl)-1H-pyrazol-4-yl]-(3-quinoxalin-6-yl-3H-[1,2,3]triazolo[4,5-d]pyrimidin-5-yl)-amine]"
< 0.3,< 300,"O[C@H]1CC[C@H](n2cc(Nc3ncc4nnn(-c5ccc(Cl)c(F)c5)c4n3)cn2)CC1 [Compound A103, 4-{4-[3-(4-chloro-3-fluoro-phenyl)-3H-[1,2,3]triazolo[4,5-d]pyrimidin-5-ylamino]-pyrazol-1-yl}-cyclohexanol]"
3 to 50,< 300,"CCn1cc(Nc2ncc3nnn(-c4cnn(CC)c4)c3n2)cn1 [Compound A106, (1-ethyl-1H-pyrazol-4-yl)-[3-(1-ethyl-1H-pyrazol-4-yl)-3H-[1,2,3]triazolo[4,5-d]pyrimidin-5-yl]-amine]"
0.3 to 3,< 300,"COCCOc1ccc(-n2nnc3cnc(Nc4cnn([C@H]5CC[C@@H](O)CC5)c4)nc32)cc1 [Compound A107, 4-(4-{3-[4-(2-methoxy-ethoxy)-phenyl]-3H-[1,2,3]triazolo[4,5-d]pyrimidin-5-ylamino}-pyrazol-1-yl)-cyclohexanol]"
3 to 50,< 300,"COCCOc1ccc(-n2nnc3cnc(Nc4cnn([C@H]5CC[C@H](O)CC5)c4)nc32)cc1 [Compound A108, 4-(4-{3-[4-(2-methoxy-ethoxy)-phenyl]-3H-[1,2,3]triazolo[4,5-d]pyrimidin-5-ylamino}-pyrazol-1-yl)-cyclohexanol]"
3 to 50,300 to 3000,"CN1CCC(n2cc(Nc3ncc4nnn(-c5ccc(F)c(Cl)c5)c4n3)cn2)CC1 [Compound A111, [3-(3-chloro-4-fluoro-phenyl)-3H-[1,2,3]triazolo[4,5-d]pyrimidin-5-yl]-[1-(1-methyl-piperidin-4-yl)-1H-pyrazol-4-yl]-amine]"
3 to 50,< 300,"CCOc1ccc(-n2nnc3cnc(Nc4cnn(CCN5CCOCC5)c4)nc32)cc1 [Compound A115, [3-(4-ethoxy-phenyl)-3H-[1,2,3]triazolo[4,5-d]pyrimidin-5-yl]-[1-(2-morpholin-4-yl-ethyl)-1H-pyrazol-4-yl]-amine]"
0.3 to 3,< 300,"CCn1cc(Nc2ncc3nnn(-c4ccc(C(=O)OC)cc4)c3n2)cn1 [Compound A117, 4-[5-(1-ethyl-1H-pyrazol-4-ylamino)-[1,2,3]triazolo[4,5-d]pyrimidin-3-yl]-benzoic acid methyl ester]"
0.3 to 3,< 300,"CN1CCC(n2cc(Nc3ncc4nnn(-c5cccc(F)c5)c4n3)cn2)CC1 [Compound A118, [3-(3-fluoro-phenyl)-3H-[1,2,3]triazolo[4,5-d]pyrimidin-5-yl]-[1-(1-methyl-piperidin-4-yl)-1H-pyrazol-4-yl]-amine]"
0.3 to 3,< 300,"CC(C)(O)c1ccc(-n2nnc3cnc(Nc4cnn(C5CCOCC5)c4)nc32)cc1 [Compound A119, 2-(4-{5-[1-(tetrahydro-pyran-4-yl)-1H-pyrazol-4-ylamino]-[1,2,3]triazolo[4,5-d]pyrimidin-3-yl}-phenyl)-propan-2-ol]"
3 to 50,300 to 3000,"CN1CCC(n2cc(Nc3ncc4nnn(-c5ccc(F)c(F)c5)c4n3)cn2)CC1 [Compound A120, [3-(3,4-difluoro-phenyl)-3H-[1,2,3]triazolo[4,5-d]pyrimidin-5-yl]-[1-(1-methyl-piperidin-4-yl)-1H-pyrazol-4-yl]-amine]"
0.3 to 3,< 300,"CCn1cc(Nc2ncc3nnn(-c4ccc(C(C)(C)O)cc4)c3n2)cn1 [Compound A121, 2-{4-[5-(1-ethyl-1H-pyrazol-4-ylamino)-[1,2,3]triazolo[4,5-d]pyrimidin-3-yl]-phenyl}-propan-2-ol]"
0.3 to 3,< 300,"Fc1cccc(-n2nnc3cnc(Nc4cnn(C5CCOCC5)c4)nc32)c1 [Compound A122, [3-(3-fluoro-phenyl)-3H-[1,2,3]triazolo[4,5-d]pyrimidin-5-yl]-[1-(tetrahydro-pyran-4-yl)-1H-pyrazol-4-yl]-amine]"
3 to 50,< 300,"COc1ccc(-n2nnc3cnc(Nc4cnn(CCn5cccn5)c4)nc32)nc1 [Compound A124, [3-(5-methoxy-pyridin-2-yl)-3H-[1,2,3]triazolo[4,5-d]pyrimidin-5-yl]-[1-(2-pyrazol-1-yl-ethyl)-1H-pyrazol-4-yl]-amine]"
< 0.3,< 300,"CCOc1ccc(-n2nnc3cnc(Nc4cnn(CCCC5CCNCC5)c4)nc32)cc1 [Compound A125, [3-(4-ethoxy-phenyl)-3H-[1,2,3]triazolo[4,5-d]pyrimidin-5-yl]-[1-(3-piperidin-4-yl-propyl)-1H-pyrazol-4-yl]-amine]"
3 to 50,< 300,"Fc1cccc(-n2nnc3cnc(Nc4cnn(CCn5cccn5)c4)nc32)c1 [Compound A126, [3-(3-fluoro-phenyl)-3H-[1,2,3]triazolo[4,5-d]pyrimidin-5-yl]-[1-(2-pyrazol-1-yl-ethyl)-1H-pyrazol-4-yl]-amine]"
0.3 to 3,< 300,"CCn1cc(Nc2ncc3nnn(-c4ccc(C(C)(C)OCCO)cc4)c3n2)cn1 [Compound A127, 2-(1-{4-[5-(1-ethyl-1H-pyrazol-4-ylamino)-[1,2,3]triazolo[4,5-d]pyrimidin-3-yl]-phenyl}-1-methyl-ethoxy)-ethanol]"
0.3 to 3,< 300,"CCn1cc(Nc2ncc3nnn(-c4ccc(C(C)(C)F)cc4)c3n2)cn1 [Compound A128, (1-ethyl-1H-pyrazol-4-yl)-{3-[4-(1-fluoro-1-methyl-ethyl)-phenyl]-3H-[1,2,3]triazolo[4,5-d]pyrimidin-5-yl}-amine]"
0.3 to 3,< 300,"CC(C)(OCCO)c1ccc(-n2nnc3cnc(Nc4cnn(C5CCOCC5)c4)nc32)cc1 [Compound A130, 2-[1-methyl-1-(4-{5-[1-(tetrahydro-pyran-4-yl)-1H-pyrazol-4-ylamino]-[1,2,3]triazolo[4,5-d]pyrimidin-3-yl}-phenyl)-ethoxy]-ethanol]"
